Results: patent US12370193B2, “Method of inhibiting TREM-1” (UNIVERSITY OF FLORIDA RESEARCH FOUNDATION, INCORPORATED, priority 2019, dated 2025)

Tests used:
[1] = tested on: murine TREM1 promoter; assay: TREM1 promoter reporter (luciferase) assay; assay type: cell-based, Mus musculus
Procedure: Each LXRβ, PPARγ, and RORγ full length plasmid was co-transfected with TREM1/pGL3 using X-tremeGENE 9 into HEK293T cells. After 48 hrs, luciferase activity was measured using BriteLite plus assay system (PerkinElmer).

[2] = Tolerability following chronic administration; assay type: in vivo
[3] = tested on: collagen-induced arthritis; assay: Collagen-induced arthritis (CIA) mouse model
Procedure: Clinical score was monitored every day after boosting during 18 days. […] The dosage of all compounds was identical in each group.
Briefly, DBA/1J mice were injected with chicken type II collagen on day 1 and then each animal received a boost injection of collagen on Day 21. Compound treatment, initiated on day 3-post boost injection, was administered intraperitoneally at 20 mg/kg twice-a-day for a total of 16 days. […] Mice: All mice were maintained in a specific pathogen-free environment in accordance with institutional protocol. […] Female DBA/1J mice were purchased from Taconic. CIA was induced in 8 weeks as previously described^40.

[4] = tested on: RORβ; assay: Gal4-RORβ co-transfection promoter-reporter assay; assay type: cell-based; details: Gal4 assay format
Procedure: (§1) Reporter gene assays: Twenty-four hours before transfection, HEK293T cells were plated in 96-well plates at a density of 15×10^3 cells per well. UAS:luciferase reporter and Ga14-RORa, Gal4-RORb, Gal4-RORγ, Gal4-LXRα, or Gal4 PPARγ DNA co-transfections were performed using X-tremeGENE 9 (Roche). Twenty-four hours after transfection, the cells were treated with vehicle or compound. Twenty-four hours after treatment, the luciferase activity was measured using the Dual-Glo luciferase assay system (Promega). Results were analyzed using GraphPad Prism software.

[5] = molecular target: T1, LXRα (Homo sapiens, UniProt Q13133); assay: Gal4-LXRα co-transfection promoter-reporter assay; assay type: cell-based; details: HEK293T cells, read-out: LXR agonist activity EC50
T1 sequence (Q13133 209-447 limits assumed): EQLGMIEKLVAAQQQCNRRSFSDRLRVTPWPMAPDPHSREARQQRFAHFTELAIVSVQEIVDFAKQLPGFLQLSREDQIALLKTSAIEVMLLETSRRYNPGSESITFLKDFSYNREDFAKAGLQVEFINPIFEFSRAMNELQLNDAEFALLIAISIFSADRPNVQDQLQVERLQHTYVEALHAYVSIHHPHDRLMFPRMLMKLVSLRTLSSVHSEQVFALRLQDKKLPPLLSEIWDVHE
Text: FIGS. 1A to 1E: Pan modulator with poly-pharmacology. […] FIG. 1D is a graph showing PPARγ target genes (aP2 and CD36) expression in OP9 cells with and without MDI (IBMX, dexamethasone, insulin) treatment. […] SR1903 is represented as orange sticks while PPARγ, RORγ, and LXRβ are depicted as blue ribbons respectively. Specific residues driving the interaction labelled and shown as sticks as well. […] FIG. 1F are graphs showing RORγ target genes (IL17A and IL17F) expression in EL4 cells.
as §1

[6] = Food intake in lean mice and conditioned taste aversion; assay type: in vivo
[7] = tested on: EL4 cells; assay: RORγ target gene expression in PMA/ionomycin stimulated EL4 cells; assay type: cell-based; details: PMA and ionomycin, compound at 10 μM
Text: FIG. 1D is a graph showing PPARγ target genes (aP2 and CD36) expression in OP9 cells with and without MDI (IBMX, dexamethasone, insulin) treatment. […] Specific residues driving the interaction labelled and shown as sticks as well. […] Quantitative RT-PCR: Total RNA was extracted from EL4 or RAW264.7 cells using RNeasy Plus Micro Kit (Qiagen) and the RNA was reverse transcribed using the ABI reverse transcription kit (Applied Biosystems/Thermo Fisher Scientific, Waltham MA). Quantitative PCR was performed with a 7900HT Fast Real Time PCR System (Applied Biosystems) using SYBR green (Roche).

[8] = Pharmacokinetics in mice; assay type: in vivo; details: 20 mg/kg twice-a-day
Procedure: Compound was formulated in 10/10/80 DMSO/Tween80/Water and administered to mice at either 20 mg/kg by oral gavage or at 25 mg/kg via intraperitoneal injection. Blood was drawn at the indicated times and plasma was generated. Following solid phase extraction, drug levels were quantitated using LC-MSMS.

## Cc1cc(CN2CCN(Cc3ccncc3)CC2)ccc1-c1ccc(C(O)(C(F)(F)F)C(F)(F)F)cc1 [SR1903, 1,1,1,3,3,3-hexafluoro-2-(2′-methyl-4′-((4-(pyridin-4-ylmethyl)piperazin-1-yl)methyl)-[1,1′-biphenyl]-4-yl)propan-2-ol]
[1]; co-expression with PPARγ and LXRβ
  effect on TREM1 promoter activity: little effect
[1]; co-expression with RORγ
  attenuation of TREM1 promoter activity: ~50%
[2]
  tolerability: very well tolerated
[3]; CIA mice, 20 mg/kg
  enlargement of the liver: did not cause enlargement of the liver
[3]; CIA mice, compared to GW3965 or T0901317
  thymocyte differentiation and survival: enhanced thymocyte differentiation and survival
[3]; Day 34, 20 mg/kg i.p. twice-a-day, vehicle 13.6±2.9
  arthritis clinical score: 3.8±2.5
[3]; treated mice, unlike SR2211 treated mice
  intrathymic cell number: enriched
[4]
  activity on RORβ: lack activity
[5]
  EC50: 689 nM
[6]; 20 mg/kg
  conditioned taste aversion: no effect
[6]; lean mice
  food intake: no effect on food intake
[7]
  IL17A expression: repressed
  IL17F expression: repressed
[8]
  plasma exposure relative to IC50: sufficient to have compound levels above its IC50
